Reference: the supplement of paper PMC10307832

How the values were obtained:
Assay in all cases: relative viability (nuclei count vs DMSO), 5 days (fraction); higher = more cells survive
XMD8-85 + Luminespib = compound: CN1CCN(CC1)C2=CC(=C(C=C2)NC3=NC=C4C(=N3)N(C5=CC=CC=C5C(=O)N4C)C)OC [XMD8-85] + CCNC(=O)c1noc(-c2cc(C(C)C)c(O)cc2O)c1-c1ccc(CN2CCOCC2)cc1 [Luminespib] (partner 0.01 µM)
How it was run: (§1)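 A single step with final 0.05% Triton X-100, 1% formaldehyde and 1 ug/ml Hoechst fixed the cells and stained nuclei 5 days after treatment. Lung cancer cell lines in 1536-well plates had been treated by pin tool the day after seeding with one drug alone or a fixed anchor-drug dose plus five library-drug doses (not always all listed) in √10 steps, and nuclei were counted on 4× images. Relative viability is the ratio of nuclei in treated wells to nuclei in vehicle wells, taken as the median of duplicate plates.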

XMD8-85 + Trametinib = compound: CN1CCN(CC1)C2=CC(=C(C=C2)NC3=NC=C4C(=N3)N(C5=CC=CC=C5C(=O)N4C)C)OC [XMD8-85] + CC(=O)Nc1cccc(-n2c(=O)n(C3CC3)c(=O)c3c(Nc4ccc(I)cc4F)n(C)c(=O)c(C)c32)c1 [Trametinib] (partner 0.02 µM)
How it was run: as §1

4EGI-1 + Olaparib = compound: O=C(O)C(Cc1ccccc1[N+](=O)[O-])=NNc1nc(-c2ccc(Cl)c(Cl)c2)cs1 (mixture of isomers) [4EGI-1] + O=C(c1cc(Cc2n[nH]c(=O)c3ccccc23)ccc1F)N1CCN(C(=O)C2CC2)CC1 [Olaparib] (partner 8 µM)
How it was run: as §1

4EGI-1 + Pictilisib = compound: O=C(O)C(Cc1ccccc1[N+](=O)[O-])=NNc1nc(-c2ccc(Cl)c(Cl)c2)cs1 (mixture of isomers) [4EGI-1] + CS(=O)(=O)N1CCN(Cc2cc3nc(-c4cccc5[nH]ncc45)nc(N4CCOCC4)c3s2)CC1 [Pictilisib] (partner 1 µM)
How it was run: as §1

Cell Line: NCI-H1437
- relative viability (XMD8-85 + Luminespib; first compound 0.08 µM): 1.15
- relative viability (XMD8-85 + Luminespib; first compound 0.253 µM): 1.19
- relative viability (XMD8-85 + Luminespib; first compound 0.8 µM): 1.15
- relative viability (XMD8-85 + Luminespib; first compound 2.53 µM): 1.07
- relative viability (XMD8-85 + Luminespib; first compound 8 µM): 0.813
- relative viability (XMD8-85 + Trametinib; first compound 0.08 µM): 0.547
- relative viability (XMD8-85 + Trametinib; first compound 0.253 µM): 0.487
- relative viability (XMD8-85 + Trametinib; first compound 0.8 µM): 0.491
- relative viability (XMD8-85 + Trametinib; first compound 2.53 µM): 0.594
- relative viability (XMD8-85 + Trametinib; first compound 8 µM): 0.308
- relative viability (4EGI-1 + Olaparib; first compound 0.5 µM): 0.655
- relative viability (4EGI-1 + Olaparib; first compound 1.581 µM): 0.625
- relative viability (4EGI-1 + Olaparib; first compound 5 µM): 0.589
- relative viability (4EGI-1 + Olaparib; first compound 15.81 µM): 0.395
- relative viability (4EGI-1 + Olaparib; first compound 50 µM): 0.194
- relative viability (4EGI-1 + Pictilisib; first compound 0.5 µM): 0.532
- relative viability (4EGI-1 + Pictilisib; first compound 1.581 µM): 0.478
- relative viability (4EGI-1 + Pictilisib; first compound 5 µM): 0.533
- relative viability (4EGI-1 + Pictilisib; first compound 15.81 µM): 0.256
- relative viability (4EGI-1 + Pictilisib; first compound 50 µM): 0.126

Cell Line: NCI-H1623
- relative viability (XMD8-85 + Luminespib; first compound 0.08 µM): 0.489
- relative viability (XMD8-85 + Luminespib; first compound 0.253 µM): 0.418
- relative viability (XMD8-85 + Luminespib; first compound 0.8 µM): 0.58
- relative viability (XMD8-85 + Luminespib; first compound 2.53 µM): 0.42
- relative viability (XMD8-85 + Luminespib; first compound 8 µM): 0.489

Cell Line: NCI-H2126
- relative viability (XMD8-85 + Luminespib; first compound 0.08 µM): 0.948
- relative viability (XMD8-85 + Luminespib; first compound 0.253 µM): 1
- relative viability (XMD8-85 + Luminespib; first compound 0.8 µM): 0.917
- relative viability (XMD8-85 + Luminespib; first compound 2.53 µM): 1.05
- relative viability (XMD8-85 + Luminespib; first compound 8 µM): 0.891
- relative viability (XMD8-85 + Trametinib; first compound 0.08 µM): 0.584
- relative viability (XMD8-85 + Trametinib; first compound 0.253 µM): 0.6
- relative viability (XMD8-85 + Trametinib; first compound 0.8 µM): 0.615
- relative viability (XMD8-85 + Trametinib; first compound 2.53 µM): 0.538
- relative viability (XMD8-85 + Trametinib; first compound 8 µM): 0.398
- relative viability (4EGI-1 + Olaparib; first compound 0.5 µM): 1
- relative viability (4EGI-1 + Olaparib; first compound 1.581 µM): 0.927
- relative viability (4EGI-1 + Olaparib; first compound 5 µM): 0.858
- relative viability (4EGI-1 + Olaparib; first compound 15.81 µM): 0.942
- relative viability (4EGI-1 + Olaparib; first compound 50 µM): 0.654
- relative viability (4EGI-1 + Pictilisib; first compound 0.5 µM): 0.525
- relative viability (4EGI-1 + Pictilisib; first compound 1.581 µM): 0.455
- relative viability (4EGI-1 + Pictilisib; first compound 5 µM): 0.581
- relative viability (4EGI-1 + Pictilisib; first compound 15.81 µM): 0.445
- relative viability (4EGI-1 + Pictilisib; first compound 50 µM): 0.42

Cell Line: NCI-H596
- relative viability (XMD8-85 + Luminespib; first compound 0.08 µM): 0.885
- relative viability (XMD8-85 + Luminespib; first compound 0.253 µM): 1.02
- relative viability (XMD8-85 + Luminespib; first compound 2.53 µM): 0.875
- relative viability (XMD8-85 + Luminespib; first compound 8 µM): 0.605
- relative viability (XMD8-85 + Trametinib; first compound 0.08 µM): 0.866
- relative viability (XMD8-85 + Trametinib; first compound 0.253 µM): 0.72
- relative viability (XMD8-85 + Trametinib; first compound 0.8 µM): 0.675
- relative viability (XMD8-85 + Trametinib; first compound 2.53 µM): 0.769
- relative viability (XMD8-85 + Trametinib; first compound 8 µM): 0.696
- relative viability (4EGI-1 + Olaparib; first compound 0.5 µM): 0.726
- relative viability (4EGI-1 + Olaparib; first compound 1.581 µM): 0.664
- relative viability (4EGI-1 + Olaparib; first compound 5 µM): 0.786
- relative viability (4EGI-1 + Olaparib; first compound 15.81 µM): 0.568
- relative viability (4EGI-1 + Olaparib; first compound 50 µM): 0.464
- relative viability (4EGI-1 + Pictilisib; first compound 0.5 µM): 0.439
- relative viability (4EGI-1 + Pictilisib; first compound 1.581 µM): 0.394
- relative viability (4EGI-1 + Pictilisib; first compound 5 µM): 0.394
- relative viability (4EGI-1 + Pictilisib; first compound 15.81 µM): 0.4
- relative viability (4EGI-1 + Pictilisib; first compound 50 µM): 0.352

Cell Line: NCI-H2009
- relative viability (XMD8-85 + Luminespib; first compound 0.08 µM): 1.01
- relative viability (XMD8-85 + Luminespib; first compound 0.253 µM): 1.01
- relative viability (XMD8-85 + Luminespib; first compound 0.8 µM): 1.05
- relative viability (XMD8-85 + Luminespib; first compound 2.53 µM): 0.898
- relative viability (XMD8-85 + Luminespib; first compound 8 µM): 0.564
- relative viability (XMD8-85 + Trametinib; first compound 0.08 µM): 0.26
- relative viability (XMD8-85 + Trametinib; first compound 0.253 µM): 0.237
- relative viability (XMD8-85 + Trametinib; first compound 0.8 µM): 0.261
- relative viability (XMD8-85 + Trametinib; first compound 2.53 µM): 0.253
- relative viability (XMD8-85 + Trametinib; first compound 8 µM): 0.18
- relative viability (4EGI-1 + Olaparib; first compound 0.5 µM): 0.768
- relative viability (4EGI-1 + Olaparib; first compound 1.581 µM): 0.63
- relative viability (4EGI-1 + Olaparib; first compound 5 µM): 0.647
- relative viability (4EGI-1 + Olaparib; first compound 15.81 µM): 0.421
- relative viability (4EGI-1 + Olaparib; first compound 50 µM): 0.374
- relative viability (4EGI-1 + Pictilisib; first compound 0.5 µM): 1.08
- relative viability (4EGI-1 + Pictilisib; first compound 1.581 µM): 0.772
- relative viability (4EGI-1 + Pictilisib; first compound 5 µM): 1.06
- relative viability (4EGI-1 + Pictilisib; first compound 15.81 µM): 0.843
- relative viability (4EGI-1 + Pictilisib; first compound 50 µM): 0.169
